Data taken from paper PMC11116414, “Impact of secretin receptor homo-dimerization on natural ligand binding” (Nature Communications, 2024).
No end group written: not given here.

System: cysteine-containing SecR(G264A,I268A) constructs
Test: Cysteine trapping with SecR(G264A,I268A) cysteine constructs, intact COS-1 cells
Assay type: binding, human
Conditions: for Intraloop labeling / Overall labeling: mean ± S.E.M.; for cysteine trapping in ECL3, in words: WT (earlier work) and non-dimerizing SecR
Procedure: In short, 15 µg of each peptide were incubated with 1 mCi of Na^125I for 15 s in borate buffer (pH 9.0) using solid-state N-chlorobenzene sulfonamide (iodination beads), and radioactive peptide products were separated and purified using reversed-phase HPLC, to yield a mono-iodinated peak with a specific radioactivity of 2000 Ci/mmol.
Modified secretin receptor constructs were prepared by mutagenesis of human SecR(G264A,I268A) by introducing cysteine residues to replace each natural residue in the N-terminal stalk region, (extracellular loop 1) ECL1, ECL2, and ECL3 regions of the receptor[21]. Mutagenesis was performed using the QuikChange site-directed mutagenesis kit from Stratagene (La Jolla, CA), with the products verified by direct DNA sequencing.
Cysteine trapping is a technique in which cysteine residues incorporated into distinct positions within a peptide ligand and within its receptor are allowed to form disulfide bonds when two free cysteines are in proximity to each other with necessary distance and geometry. As noted above, this was performed with secretin peptides incorporating cysteines in positions 2, 5, 6 and 7[20],[21], and with a series of SecR mutants incorporating cysteines in all extracellular domains (75 distinct constructs in a TM4 mutant non-dimerizing SecR background). COS-1 cells were grown to approximate 85% confluence in 24-well tissue culture plates, and transfected with cysteine mutant receptor constructs using the PEI method. Assays were started by washing the cells with DMEM containing 5% Fetal Clone II before being incubated with 200 μl radiolabeled cysteine-containing probes (approximately 100,000 cpm per well) for 1.5 h at room temperature. The assays were terminated by washing the cells with ice-cold PBS, pH 7.4, and mixing with 60 µl SDS Laemmli sample buffer not containing dithiothreitol (DTT). Lysates were run on 10% SDS-polyacrylamide gels. Gels were then dried, and bands of interest were visualized by autoradiography, and specific bands were identified, and intensities quantified using ImageJ. Sites having labeling above background were determined using one-way ANOVA with Dunnett’s post-test, with P < 0.001 considered to be significant. The apparent molecular weights of the receptor bands were determined by interpolation with the mobility of the appropriate ProSieve protein markers.

[1] = A292C, ECL2, n = 3-5, Cys5 significant (P < 0.0001)
[2] = A365C, ECL3, n = 3-5, Cys5 significant (P < 0.0001)
[3] = F279C, ECL2, % of highest labeling within loop, n = 4 (Cys2), 5 (Cys5, Cys6), 3 (Cys7)
[4] = F279C, ECL2, % of highest-labeled residue across all constructs, n = 4 (Cys2), 5 (Cys5, Cys6), 3 (Cys7)
[5] = I288C, ECL2, n = 3-5, Cys5 and Cys7 significant (P < 0.0001)
[6] = L374C, ECL3, n = 3-5, Cys5, Cys6, Cys7 significant (P < 0.001)
[7] = M366C, ECL3, n = 3-5, Cys5 significant (P < 0.0001)
[8] = W296C, ECL2, n = 3-5, Cys6 significant (P = 0.0003)

Cys^7-[Tyr^10]secretin(1-27) (HSDGTFCSEYSRLREGARLQRLLQGLV; not fully specified; ends and bridges not checked; also: radioiodinated; UniProt P09683 28-54, looked up, variant T7C L10Y) [Cys^7-Sec, cysteine-containing secretin agonist probe, radioiodinated for cysteine trapping]
Intraloop labeling (A290C, ECL2, n = 3-5): < 1 percentage | Overall labeling (A290C, ECL2, n = 3-5): < 1 percentage | Intraloop labeling (A292C, ECL2, n = 3-5): < 1 percentage | Overall labeling [1]: < 1 percentage | Intraloop labeling (A359C, ECL3, n = 3-5): 85.3±8.6 percentage | Overall labeling (A359C, ECL3, n = 3-5, Cys7 significant (P = 0.0004)): 85.3±8.6 percentage | Intraloop labeling (A365C, ECL3, n = 3-5): 66.4±17.1 percentage | Overall labeling [2]: 66.4±17.1 percentage | Intraloop labeling (D282C, ECL2, n = 3-5): < 1 percentage | Overall labeling (D282C, ECL2, n = 3-5): < 1 percentage | Intraloop labeling (D287C, ECL2, n = 3-5): 15.7±15.6 percentage | Intraloop labeling (E363C, ECL3, n = 3-5): < 1 percentage | Overall labeling (E363C, ECL3, n = 3-5): < 1 percentage | Intraloop labeling (E367C, ECL3, n = 3-5): < 1 percentage | Overall labeling (E367C, ECL3, n = 3-5): < 1 percentage | Intraloop labeling (E373C, ECL3, n = 3-5): < 1 percentage | Overall labeling (E373C, ECL3, n = 3-5): < 1 percentage | Intraloop labeling [3]: < 1 percentage | Overall labeling [4]: < 1 percentage | Intraloop labeling (F358C, ECL3, n = 3-5): 21.6±20.7 percentage | Overall labeling (F358C, ECL3, n = 3-5): 21.6±20.7 percentage | Intraloop labeling (F360C, ECL3, n = 3-5): 23.9±23.4 percentage | Overall labeling (F360C, ECL3, n = 3-5): 23.9±23.4 percentage | Intraloop labeling (F372C, ECL3, n = 3-5): 24.8±24.7 percentage | Overall labeling (F372C, ECL3, n = 3-5): 24.8±24.7 percentage | Intraloop labeling (G284C, ECL2, n = 3-5): < 1 percentage | Overall labeling (G284C, ECL2, n = 3-5): < 1 percentage | Intraloop labeling (I288C, ECL2, n = 3-5): 82.9±8.6 percentage | Overall labeling [5]: 71.4±10.6 percentage | Intraloop labeling (I294C, ECL2, n = 3-5): < 1 percentage | Overall labeling (I294C, ECL2, n = 3-5): < 1 percentage | Intraloop labeling (I297C, ECL2, n = 3-5): < 1 percentage | Overall labeling (I297C, ECL2, n = 3-5): < 1 percentage | Intraloop labeling (I368C, ECL3, n = 3-5): < 1 percentage | Overall labeling (I368C, ECL3, n = 3-5): < 1 percentage | Intraloop labeling (L280C, ECL2, n = 3-5): < 1 percentage | Overall labeling (L280C, ECL2, n = 3-5): < 1 percentage | Intraloop labeling (L374C, ECL3, n = 3-5): 88.6±11.4 percentage | Overall labeling [6]: 88.6±11.4 percentage | Intraloop labeling (M366C, ECL3, n = 3-5): 55.6±22.3 percentage | Overall labeling [7]: 55.6±22.3 percentage | Intraloop labeling (N291C, ECL2, n = 3-5): < 1 percentage | Overall labeling (N291C, ECL2, n = 3-5): < 1 percentage | Intraloop labeling (P362C, ECL3, n = 3-5): < 1 percentage | Overall labeling (P362C, ECL3, n = 3-5): < 1 percentage | Intraloop labeling (Q369C, ECL3, n = 3-5): < 1 percentage | Overall labeling (Q369C, ECL3, n = 3-5): < 1 percentage | Intraloop labeling (S293C, ECL2, n = 3-5): < 1 percentage | Overall labeling (S293C, ECL2, n = 3-5): < 1 percentage | Intraloop labeling (S361C, ECL3, n = 3-5): < 1 percentage | Overall labeling (S361C, ECL3, n = 3-5): < 1 percentage | Intraloop labeling (V283C, ECL2, n = 3-5): < 1 percentage | Overall labeling (V283C, ECL2, n = 3-5): < 1 percentage | Overall labeling (W286C, ECL2, n = 3-5): < 1 percentage | Intraloop labeling (W295C, ECL2, n = 3-5): 92.5±7.5 percentage | Intraloop labeling (W296C, ECL2, n = 3-5): < 1 percentage | Overall labeling [8]: < 1 percentage | cysteine trapping in ECL3, in words: labeled ECL3 residues

Cys^5-[Tyr^10]secretin(1-27) (HSDGCFTSEYSRLREGARLQRLLQGLV; not fully specified; ends and bridges not checked; also: radioiodinated; UniProt P09683 28-54, looked up, variant T5C L10Y) [Cys^5-Sec, cysteine-containing secretin agonist probe, radioiodinated for cysteine trapping]
Intraloop labeling (A290C, ECL2, n = 3-5): 20.3±19.9 percentage | Overall labeling (A290C, ECL2, n = 3-5): 15.5±15.2 percentage | Intraloop labeling (A292C, ECL2, n = 3-5): 93.4±2.8 percentage | Overall labeling [1]: 88.5±4.0 percentage | Intraloop labeling (A365C, ECL3, n = 3-5): 90.4±5.8 percentage | Overall labeling [2]: 82.4±7.9 percentage | Intraloop labeling (D282C, ECL2, n = 3-5): < 1 percentage | Overall labeling (D282C, ECL2, n = 3-5): < 1 percentage | Intraloop labeling (D287C, ECL2, n = 3-5): < 1 percentage | Overall labeling (D287C, ECL2, n = 3-5): < 1 percentage | Intraloop labeling (D364C, ECL3, n = 3-5): 62.2±12.3 percentage | Overall labeling (D364C, ECL3, n = 3-5, Cys5 significant (P < 0.0001)): 54.2±7.8 percentage | Intraloop labeling (E281C, ECL2, n = 3-5): < 1 percentage | Overall labeling (E281C, ECL2, n = 3-5): < 1 percentage | Intraloop labeling (E363C, ECL3, n = 3-5): < 1 percentage | Overall labeling (E363C, ECL3, n = 3-5): < 1 percentage | Intraloop labeling (E367C, ECL3, n = 3-5): < 1 percentage | Overall labeling (E367C, ECL3, n = 3-5): < 1 percentage | Intraloop labeling (E373C, ECL3, n = 3-5): < 1 percentage | Overall labeling (E373C, ECL3, n = 3-5): < 1 percentage | Intraloop labeling [3]: < 1 percentage | Overall labeling [4]: < 1 percentage | Intraloop labeling (F371C, ECL3, n = 3-5): < 1 percentage | Overall labeling (F371C, ECL3, n = 3-5): < 1 percentage | Intraloop labeling (F372C, ECL3, n = 3-5): < 1 percentage | Overall labeling (F372C, ECL3, n = 3-5): < 1 percentage | Intraloop labeling (G284C, ECL2, n = 3-5): < 1 percentage | Overall labeling (G284C, ECL2, n = 3-5): < 1 percentage | Intraloop labeling (I288C, ECL2, n = 3-5): 71.1±10.8 percentage | Overall labeling [5]: 69.2±12.2 percentage | Intraloop labeling (I294C, ECL2, n = 3-5): < 1 percentage | Overall labeling (I294C, ECL2, n = 3-5): < 1 percentage | Intraloop labeling (I297C, ECL2, n = 3-5): < 1 percentage | Overall labeling (I297C, ECL2, n = 3-5): < 1 percentage | Intraloop labeling (I368C, ECL3, n = 3-5): < 1 percentage | Overall labeling (I368C, ECL3, n = 3-5): < 1 percentage | Intraloop labeling (L280C, ECL2, n = 3-5): < 1 percentage | Overall labeling (L280C, ECL2, n = 3-5): < 1 percentage | Intraloop labeling (L370C, ECL3, n = 3-5): < 1 percentage | Overall labeling (L370C, ECL3, n = 3-5): < 1 percentage | Intraloop labeling (L374C, ECL3, n = 3-5): 77.3±7.7 percentage | Overall labeling [6]: 69.8±7.5 percentage | Intraloop labeling (M366C, ECL3, n = 3-5): 59.9±11.0 percentage | Overall labeling [7]: 55.3±12.0 percentage | Intraloop labeling (N289C, ECL2, n = 3-5): < 1 percentage | Overall labeling (N289C, ECL2, n = 3-5): < 1 percentage | Intraloop labeling (N291C, ECL2, n = 3-5): < 1 percentage | Overall labeling (N291C, ECL2, n = 3-5): < 1 percentage | Intraloop labeling (P362C, ECL3, n = 3-5): 20.3±19.9 percentage | Overall labeling (P362C, ECL3, n = 3-5): 19.3±19.0 percentage | Intraloop labeling (Q369C, ECL3, n = 3-5): 21.6±13.4 percentage | Overall labeling (Q369C, ECL3, n = 3-5): 21.6±13.5 percentage | Intraloop labeling (S293C, ECL2, n = 3-5): < 1 percentage | Overall labeling (S293C, ECL2, n = 3-5): < 1 percentage | Intraloop labeling (S361C, ECL3, n = 3-5): < 1 percentage | Overall labeling (S361C, ECL3, n = 3-5): < 1 percentage | Intraloop labeling (V283C, ECL2, n = 3-5): < 1 percentage | Overall labeling (V283C, ECL2, n = 3-5): < 1 percentage | Intraloop labeling (W286C, ECL2, n = 3-5): < 1 percentage | Overall labeling (W286C, ECL2, n = 3-5): < 1 percentage | Intraloop labeling (W295C, ECL2, n = 3-5): 79.1±16.7 percentage | Overall labeling (W295C, ECL2, n = 3-5, Cys2, Cys5, Cys7 significant (P < 0.0001)): 78.3±17.3 percentage | Intraloop labeling (W296C, ECL2, n = 3-5): < 1 percentage | Overall labeling [8]: < 1 percentage | cysteine trapping in ECL3, in words: labeled ECL3 residues
